Data on 19 molecules can be found in US11434250B2, “Pyrazolo[1,5a]pyrimidine derivatives as IRAK4 modulators” (Genentech, Inc., priority 2017, dated 2022).

In brackets after ≈: the same amount, converted by molar mass.

One data set has as its target human IRAK4 (Homo sapiens (Human), UniProt Q9NWZ3). In words: IRAK4 enzymatic assay (Transcreener fluorescence polarization, ADP detection). Type of data set: biochemical. The conditions noted are these: recombinant full-length IRAK4; 125 uM ATP; 90 min. Here is the method:
Compounds were assayed for inhibition of human IRAK4 and IRAK1 catalytic activity using recombinant enzyme produced from insect cells. Full-length IRAK4 protein, carrying an N-terminal His6-Tag, was obtained from Life Technologies (Carlsbad, Calif., USA). The IRAK1 construct was produced internally and was comprised of IRAK1 residues Arg194 to Ser712, preceded by an NH2-terminal His6 tag and the coding sequence for glutathione-S-transferase.
Kinase activities were assayed using the Transcreener-Fluorecescence polarization platform (BelBrook Labs, Madison, Wis., USA) that measures amounts of the reaction product, ADP. […] Final IRAK4 assay conditions were 1.25 nM IRAK4; 125 uM ATP; 10 uM MgC2; 125 uM peptide in reaction buffer (25 mM HEPES (pH7.4); 2 mM Dithiothreitol; 0.015% Brij-35; and 0.5% dimethyl sulfoxide. The IRAK1 activity was optimized similarly, yielding final assay conditions of […] IRAK1; 62.5 uM ATP; 5 uM MgCl2, and 62.5 uM IRAK1 peptide in reaction buffer for 60 min.
Assays of compounds for kinase inhibition were performed using inhibitors serially-diluted in dimethyl sulfoxide, which was accomplished with a LabCyte Echo 555 liquid dispenser. 384 well assay plates spotted with compound received 4 ul of a 2× substrate (ATP+peptide) mix in reaction buffer, followed by 4 ul of 2× enzyme diluted in reaction buffer. Reactions were halted at 60 (IRAK1) or 90 (IRAK4) min by addition of 6 ul of detection buffer, containing EDTA ([…] final concentration), 0.95 ug of the ADP-binding antibody ADP2, ADP tracer (3 nM final concentration), and […] HEPES. Following a 1 hr incubation, fluorescence polarization of the ADP2-antibody::TRACER complex was read on a Tecan M1000 plate reader using a 635/20 excitation filter in combination with a 670/20 emission filter. Delta milli-P values were analyzed using Genedata software to fit dose-response curves and compute compound Ki values, using ATP Km values of 642 um and 83.2 uM for IRAK4 and IRAK1, respectively. Table 3 provides IRAK4 Ki values for representative compounds of the present invention.
Background: In fluorescence polarisation assays a small probe gives low polarisation when free and higher when bound to something large.

A short description of the next data set: Kinetic solubility assay. The format is physicochemical. The conditions noted are these: for solubility kinetic at 24 h: PBS buffer with 2% DMSO, aqueous buffer, kinetic from dmso stock, PBS buffer pH 7.4, 2% DMSO, 24 hours shaking at room temperature, UHPLC-CLND; for Fold improvement in kinetic solubility: example compound versus its matched pair phenyl compound. Here is the method:
The kinetic solubility assay started with compound DMSO stock solutions. This assay used Millipore Multiscreen 96-well filter plates for the 24 hour equilibration shaking. Samples were prepared by adding 4 μL of the 10 mM compound DMSO stock solutions into 196 μL of PBS buffer pH 7.4 in the 96-well filter plates, yielding a compound concentration of 200 μM and 2% DMSO. The filter plate was sealed with aluminum sealing film and shaken at room temperature for 24 hours at 1000 rpm. When shaking has completed, the solutions were filtered into a clean 96-well plate utilizing a vacuum manifold. After filtration, some precipitate is often observed at the bottom of the filtration plate wells. Most of the precipitates appear to be crystalline under a polarizing light microscope. The filtrate samples were diluted by a factor of 2 using PBS pH7.4 buffer and then transferred to a 384-well plate for analysis by UHPLC-CLND (CLND: Chemiluminescence nitrogen detector). 5 μL of each sample was injected twice into the UHPLC-CLND for two repeat analysis.
Samples were detected and analyzed using UV 254 nm and CLND. UV 254 nm is used primarily to confirm the sample purity but in rare cases, is also used to quantify the concentration of compounds with no nitrogens, where additional work is done to create a compound specific calibration curve. The identification of CLND target peaks of each compound were confirmed by LCMS. Sample quantification was accomplished by CLND peak intensity, the calibration curve, and the number of nitrogen contained in the compound. One calibration curve of caffeine was used for solubility quantitative determination. A fresh calibration curve was created for every batch. The number of nitrogens in a compound used for this quantification was corrected for the actual configuration of the nitrogen in the compound.

Data set [1] is described as follows: Plasma protein binding using rapid equilibrium dialysis (RED). The format is in vitro ADME. The following applies: pH 7.4, human plasma, 37° C., read-out: Human PPB (converted). As to the method: Plasma protein binding was measured in duplicate using rapid equilibrium dialysis (RED) device ((Thermo Scientific Pierce) in a 96-well format. Briefly, 10.0 μL drug or control compounds (0.5 mM in DMSO) was mixed with 1000 μL plasma (pH adjusted to 7.4) from various species (BioreclamationIVT). Aliquots of 300 μL drug/plasma mixture were placed into the donor side chamber of a single-use RED plate, and 500 μL aliquots of PBS buffer were placed into the adjacent chamber as the receiver side. The plate was incubated on an orbital shaker at 400 rpm, at 37° C. for 4 hours. After completion of incubation, 50 μL aliquots from the PBS buffer side were mixed with 5 μL of blank plasma matrix, and 5 μL from the donor side (plasma) were mixed with 50 μL blank PBS buffer. All samples were then crashed with 200 μL acetonitrile (containing internal standard) to precipitate plasma proteins. The samples were centrifuged at 3750 rpm for 10 min to pellet the proteins. The supernatants were carefully transferred to a fresh 96-well plate, and diluted with an equivalent volume of water. The samples were then analyzed by LC-MS/MS (ABI 4000, ABI Sciex). Data acquisition and processing was performed with Analyst 1.6.1 and Multiquant 2.1. The percent of protein binding and fraction unbound (fu) in matrix was calculated from taking the ratio of responses (peak areas) on the receiver side (buffer) to those on the donor side (plasma). The ratios were normalized to the internal standard.
(In equilibrium dialysis only unbound substance equilibrates across the membrane.)

Sequence of human IRAK4 (Q9NWZ3 whole entry, the tested form may be a part): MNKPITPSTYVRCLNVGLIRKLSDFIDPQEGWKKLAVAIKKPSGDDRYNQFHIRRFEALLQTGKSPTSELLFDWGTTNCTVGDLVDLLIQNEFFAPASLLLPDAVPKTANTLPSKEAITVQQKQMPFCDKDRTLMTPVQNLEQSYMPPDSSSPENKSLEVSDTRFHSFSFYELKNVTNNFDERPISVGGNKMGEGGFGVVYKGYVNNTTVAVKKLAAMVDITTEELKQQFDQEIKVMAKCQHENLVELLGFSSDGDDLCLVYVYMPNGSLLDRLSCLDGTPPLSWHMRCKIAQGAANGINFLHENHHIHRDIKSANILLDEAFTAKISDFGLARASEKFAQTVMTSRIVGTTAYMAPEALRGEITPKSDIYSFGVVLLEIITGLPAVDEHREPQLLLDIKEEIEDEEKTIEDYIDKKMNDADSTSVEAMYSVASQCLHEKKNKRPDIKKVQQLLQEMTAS

Usually Ki stands for the equilibrium dissociation constant of an inhibitor or competing ligand from its target. Turning to `CC1(C)Cc2cc(NC(=O)c3cnn4cccnc34)c(N3CCOC[C@H]3CO)nc2O1` (single isomer, unassigned) [Example 7], on human IRAK4, the Ki stood at 2400 nM.

`CC1(C)Cc2cc(NC(=O)c3cnn4cccnc34)c(N3CCOC[C@@H]3CO)nc2O1` (single isomer, unassigned) [Example 8]: the inhibition constant Ki at human IRAK4 came out at 820 nM.

A word on the solubility (kinetic): it is solubility judged after dilution from a stock solution rather than from solid. For the molecule `C[C@@]1(CO)Cc2cc(NC(=O)c3cnn4cccnc34)c(N3CCOCC3)nc2O1` (single isomer, unassigned) [Example 11], the Ki at human IRAK4 is 45 nM. The molecule also yielded a kinetic solubility at 24 h in “Kinetic solubility assay” of 137 µM (≈ 56.2 µg/mL).

On to `CC(C)(O)[C@]1(C)Cc2cc(NC(=O)c3cnn4cccnc34)c(N3CCOCC3)nc2O1` (single isomer, unassigned) [Example 13], for which, at human IRAK4, the Ki is 91 nM.

On to `CC(C)(O)[C@@]1(C)Cc2cc(NC(=O)c3cnn4cccnc34)c(N3CCOCC3)nc2O1` (single isomer, unassigned) [Example 14], for which, on human IRAK4, the Ki was found to be 48 nM.

Regarding `Cc1cnc2c(C(=O)Nc3cc4c(nc3N3CCN(CC(N)=O)CC3)O[C@](C)(CO)C4)cnn2c1` (single isomer, unassigned) [Example 15], the Ki at human IRAK4 came out at 6.6 nM.

In the case of `Cc1cnc2c(C(=O)Nc3cc4c(nc3N3CCN(CC(N)=O)CC3)O[C@@](C)(CO)C4)cnn2c1` (single isomer, unassigned) [Example 16], the Ki on human IRAK4 is 5.5 nM.

With `CC1(CO)Cc2cc(NC(=O)c3cnn4cccnc34)c(N3CCOCC3)nc2O1` (stereo in doubt) [Example 10, (S)—N-(2-(Hydroxymethyl)-2-methyl-6-morpholino-2,3-dihydrofuro[2,3-b]pyridin-5-yl)pyrazolo[1,5-a]pyrimidine-3-carboxamide], on human IRAK4, the Ki was 88 nM. Besides, in the data set “Kinetic solubility assay”, the solubility (kinetic) at 24 h was 159 µM (≈ 65.3 µg/mL) and the “Fold improvement in kinetic solubility” value turned out to be 15.9.

As to `CC1(CO)Cc2cc(NC(=O)c3cnn4cccnc34)c(N3CCOCC3)nc2O1` (stereo in doubt) [Example 11, (R)—N-(2-(hydroxymethyl)-2-methyl-6-morpholino-2,3-dihydrofuro[2,3-b]pyridin-5-yl)pyrazolo[1,5-a]pyrimidine-3-carboxamide], the “Fold improvement in kinetic solubility” value in “Kinetic solubility assay” was found to be 13.7.

On to `C[C@]1(O)COc2nc(N3CCN(CC(F)F)CC3)c(NC(=O)c3cnn4cccnc34)cc2C1` (stereo in doubt) [Example 18, N-[rac-(3R)-7-[4-(2,2-difluoroethyl)piperazin-l-yl]-3-hydroxy-3-methyl-2,4-dihydropyrano[2,3-b]pyridin-6-yl]pyrazolo[1,5-a]pyrimidine-3-carboxamide], for which, on human IRAK4, the inhibitory constant (Ki) is 210 nM. In “Kinetic solubility assay”, the kinetic solubility at 24 h came to 167 µM (≈ 79.1 µg/mL) and the “Fold improvement in kinetic solubility” value came out at 12.8.

Take `C[C@@]1(O)COc2nc(N3CCN(CC(F)F)CC3)c(NC(=O)c3cnn4cccnc34)cc2C1` (stereo in doubt) [Example 19, N-[rac-(3S)-7-[4-(2,2-difluoroethyl)piperazin-l-yl]-3-hydroxy-3-methyl-2,4-dihydropyrano[2,3-b]pyridin-6-yl]pyrazolo[1,5-a[pyrimidine-3-carboxamide]: the inhibition constant Ki on human IRAK4 turned out to be 31 nM. Besides, in the data set “Kinetic solubility assay”, the solubility (kinetic) at 24 h was determined as 177 µM (≈ 83.8 µg/mL) and the “Fold improvement in kinetic solubility” value was found to be 31.6.

For `C[C@@]1(CO)Cc2cc(NC(=O)c3cnn4cccnc34)c(N3CCN(CC(F)F)CC3)nc2O1` (stereo in doubt) [Example 20, N-[rac-(2S)-6-[4-(2,2-difluoroethyl)piperazin-l-yl]-2-(hydroxymethyl)-2-methyl-3H-furo[2,3-b]pyridin-5-yl]pyrazolo[1,5-a]pyrimidine-3-carboxamide], the Ki at human IRAK4 stood at 9.1 nM.

For `C[C@]1(CO)Cc2cc(NC(=O)c3cnn4cccnc34)c(N3CCN(CC(F)F)CC3)nc2O1` (stereo in doubt) [Example 21, N-[rac-(2R)-6-[-(2,2-difluoroethyl)piperazin-l-yl]-2-(hydroxymethyl)-2-methyl-3H-furo[2,3-b]pyridin-5-yl]pyrazolo[1,5-a]pyrimidine-3-carboxamide], the Ki on human IRAK4 stood at 13 nM. In addition, in “Kinetic solubility assay”, the kinetic solubility at 24 h was 124 µM (≈ 58.7 µg/mL) and the “Fold improvement in kinetic solubility” value is on record as 27.0. Moreover, the fraction unbound at 4 h, 5 µM in data set [1] was 0.363.

As for `CC1(C)Cc2cc(NC(=O)c3cnn4cccnc34)c(N3CCC(CO)CC3)nc2O1` [Example 2, N-(6-(4-(Hydroxymethyl)piperidin-1-yl)-2,2-dimethyl-2,3-dihydrofuro[2,3-b]pyridin-5-yl)pyrazolo[1,5-a]pyrimidine-3-carboxamide], the Ki at human IRAK4 came out at 4.2 nM. For the same molecule, the fraction unbound at 4 h, 5 µM in data set [1] is 0.074.

For the molecule `Cc1cnc2c(C(=O)Nc3cc4c(nc3N3CCC(CO)CC3)OC(C)(C)C4)cnn2c1` [Example 3, N-(6-(4-(Hydroxymethyl)piperidin-1-yl)-2,2-dimethyl-2,3-dihydrofuro[2,3-b]pyridin-5-yl)-6-methylpyrazolo[1,5-a]pyrimidine-3-carboxamide], at human IRAK4, the Ki worked out at 4.1 nM. For the same molecule, in “Kinetic solubility assay”, the kinetic solubility at 24 h is 7.5 µM (≈ 3.27 µg/mL) and the “Fold improvement in kinetic solubility” value came to 7.5.

For `CC1(C)Cc2cc(NC(=O)c3cnn4cccnc34)c(N3CCN(CCO)CC3)nc2O1` [Example 4, N-(6-(4-(2-Hydroxyethyl)piperazin-1-yl)-2,2-dimethyl-2,3-dihydrofuro[2,3-b]pyridin-5-yl)pyrazolo[1,5-a]pyrimidine-3-carboxamide], the inhibitory constant (Ki) at human IRAK4 is 33 nM.

For the molecule `CC1(C)Cc2cc(NC(=O)c3cnn4cccnc34)c(N3CCC(F)(CO)CC3)nc2O1` [Example 5, N-[6-[4-Fluoro-4-(hydroxymethyl)-1-piperidyl]-2,2-dimethyl-3H-furo[2,3-b]pyridin-5-yl]pyrazolo[1,5-a]pyrimidine-3-carboxamide], the inhibition constant Ki at human IRAK4 was 5.6 nM. Besides, in the data set “Kinetic solubility assay”, the solubility (kinetic) at 24 h worked out at 112 µM (≈ 49.3 µg/mL) and the “Fold improvement in kinetic solubility” value is recorded as 43.1.

Regarding `CN1Cc2cc(NC(=O)c3cnn4cccnc34)c(N3CCOCC3)nc2C1=O` [Example 12, N-(6-Methyl-2-morpholino-7-oxo-6,7-dihydro-5H-pyrrolo[3,4-b]pyridin-3-yl)pyrazolo[1,5-a]pyrimidine-3-carboxamide], the Ki at human IRAK4 is 540 nM. In the data set “Kinetic solubility assay”, the kinetic solubility at 24 h was found to be 39 µM (≈ 15.3 µg/mL) and the “Fold improvement in kinetic solubility” value is recorded as 5.7.

Take `CC1(C)Cc2cc(NC(=O)c3cnn4cccnc34)c(OCC3CC3)nc2O1` [Example 17, N-[6-(cyclopropylmethoxy)-2,2-dimethyl-3H-furo[2,3-b]pyridin-5-yl]pyrazolo[1,5-a]pyrimidine-3-carboxamide]: the Ki on human IRAK4 worked out at 6.4 nM.
